According to ChEMBL document CHEMBL1126419 (Bioorg Med Chem Lett, 1992):

Biological target: cAMP-dependent protein kinase (PKA) (Homo sapiens, UniProt P22694+P17612+P22612)
Experiment: Inhibition of protein kinase A
Type: protein assay

Row | Structure (SMILES) | IC50 [µM]
1 | O=C1NC(O)c2c1c1c3ccccc3[nH]c1c1[nH]c3ccccc3c21 (centres undefined) | 34
2 | O=C1NC(=O)c2c1c1c3cccc(Cl)c3[nH]c1c1[nH]c3c(Cl)cccc3c21 | > 100
3 | O=C1NC(=O)c2c1c1c3ccccc3[nH]c1c1[nH]c3ccccc3c21 [STAUROSPORINE AGLYCON] | 60
4 | O=C1NCc2c1c1c3ccccc3[nH]c1c1[nH]c3ccccc3c21 [STAUROSPORINONE] | 25.7
